Our source for the Activity and growth values is ChEMBL document CHEMBL1240439, “Synthesis and docking studies of novel benzopyran-2-ones with anticancer activity” (2010).

Holding throughout (type): functional
One test relates to SF-295. In words: Cytotoxicity against human SF295 cells assessed as cell growth at 10 uM after 48 hrs by sulforhodamine B assay. Conditions: for growth at 10 µM: SF-295, 48 h, read-out: Activity. A general note: Sulforhodamine B stains cellular protein and so reports cell mass.
A further test has as its system RPMI-8226. In words: Cytotoxicity against human RPMI8226 cells assessed as cell growth at 10 uM after 48 hrs by sulforhodamine B assay. The conditions noted are these: for growth at 10 µM: RPMI-8226, 48 h, read-out: Activity.
The subject of a further test is MOLT-4. In words: Cytotoxicity against human MOLT4 cells assessed as cell growth at 10 uM after 48 hrs by sulforhodamine B assay. Conditions: for growth at 10 µM: MOLT-4, 48 h, read-out: Activity.
The next test concerns K562. The test is described as follows: Cytotoxicity against human K562 cells assessed as cell growth at 10 uM after 48 hrs by sulforhodamine B assay. Conditions: for growth at 10 µM: K562, 48 h, read-out: Activity.
For another test, the system named is NCI-H522. In words: Cytotoxicity against human NCI-H522 cells assessed as cell growth at 10 uM after 48 hrs by sulforhodamine B assay.
For another test, the system named is HT-29. In words: Cytotoxicity against human HT-29 cells assessed as cell growth at 10 uM after 48 hrs by sulforhodamine B assay.
A further test deals with PC-3. The test is described as follows: Cytotoxicity against human PC3 cells assessed as cell growth at 10 uM after 48 hrs by sulforhodamine B assay.
The test system of the next test is UACC-62. In words: Cytotoxicity against human UACC62 cells assessed as cell growth at 10 uM after 48 hrs by sulforhodamine B assay. The conditions noted are these: for growth at 10 µM: UACC-62, 48 h, read-out: Activity.
The test system of another test is HL-60(TB). The test is described as follows: Cytotoxicity against human HL-60(TB) cells assessed as cell growth at 10 uM after 48 hrs by sulforhodamine B assay.
A further test relates to SR. The test is described as follows: Cytotoxicity against human SR cells assessed as cell growth at 10 uM after 48 hrs by sulforhodamine B assay.
The next test relates to EKVX. In words: Cytotoxicity against human EKVX cells assessed as cell growth at 10 uM after 48 hrs by sulforhodamine B assay.
The test system of another test is SK-MEL-2. In words: Cytotoxicity against human SK-MEL-2 cells assessed as cell growth at 10 uM after 48 hrs by sulforhodamine B assay.
A further test relates to OVCAR-4. The test is described as follows: Cytotoxicity against human OVCAR4 cells assessed as cell growth at 10 uM after 48 hrs by sulforhodamine B assay.
The next test relates to T47D. In words: Cytotoxicity against human T47D cells assessed as cell growth at 10 uM after 48 hrs by sulforhodamine B assay.
For the next test, the system named is A549. The test is described as follows: Cytotoxicity against human A549 cells assessed as cell growth at 10 uM after 48 hrs by sulforhodamine B assay.
A further test has as its system HOP-62. In words: Cytotoxicity against human HOP62 cells assessed as cell growth at 10 uM after 48 hrs by sulforhodamine B assay.
Another test has as its system HOP-92. In words: Cytotoxicity against human HOP92 cells assessed as cell growth at 10 uM after 48 hrs by sulforhodamine B assay.
The test system of a further test is NCI-H322M. The test is described as follows: Cytotoxicity against human NCI-H322M cells assessed as cell growth at 10 uM after 48 hrs by sulforhodamine B assay.
The subject of another test is NCI-H460. The test is described as follows: Cytotoxicity against human NCI-H460 cells assessed as cell growth at 10 uM after 48 hrs by sulforhodamine B assay.
The test system of the next test is NCI-H226. In words: Cytotoxicity against human NCI-H226 cells assessed as cell growth at 10 uM after 48 hrs by sulforhodamine B assay.
A further test concerns NCI-H23. In words: Cytotoxicity against human NCI-H23 cells assessed as cell growth at 10 uM after 48 hrs by sulforhodamine B assay.
In a further test the test system is COLO 205. The test is described as follows: Cytotoxicity against human COLO205 cells assessed as cell growth at 10 uM after 48 hrs by sulforhodamine B assay.
Another test concerns HCC 2998. The test is described as follows: Cytotoxicity against human HCC2998 cells assessed as cell growth at 10 uM after 48 hrs by sulforhodamine B assay.
The subject of another test is HCT-116. In words: Cytotoxicity against human HCT116 cells assessed as cell growth at 10 uM after 48 hrs by sulforhodamine B assay.
The next test has as its system HCT-15. In words: Cytotoxicity against human HCT15 cells assessed as cell growth at 10 uM after 48 hrs by sulforhodamine B assay.
In the next test the test system is KM12. In words: Cytotoxicity against human KM12 cells assessed as cell growth at 10 uM after 48 hrs by sulforhodamine B assay.
In a further test the test system is SW-620. The test is described as follows: Cytotoxicity against human SW620 cells assessed as cell growth at 10 uM after 48 hrs by sulforhodamine B assay.
A further test relates to MCF7. The test is described as follows: Cytotoxicity against human MCF7 cells assessed as cell growth at 10 uM after 48 hrs by sulforhodamine B assay.
The next test concerns MDA-MB-468. In words: Cytotoxicity against human MDA-MB-468 cells assessed as cell growth at 10 uM after 48 hrs by sulforhodamine B assay.
A further test relates to MDA-MB-231. In words: Cytotoxicity against human MDA-MB-231 cells assessed as cell growth at 10 uM after 48 hrs by sulforhodamine B assay.
For the next test, the system named is Hs-578T. In words: Cytotoxicity against human Hs 578T cells assessed as cell growth at 10 uM after 48 hrs by sulforhodamine B assay.
A further test relates to BT-549. The test is described as follows: Cytotoxicity against human BT549 cells assessed as cell growth at 10 uM after 48 hrs by sulforhodamine B assay.
The test system of another test is IGROV-1. In words: Cytotoxicity against human IGROV1 cells assessed as cell growth at 10 uM after 48 hrs by sulforhodamine B assay.
The subject of the next test is OVCAR-3. The test is described as follows: Cytotoxicity against human OVCAR-3 cells assessed as cell growth at 10 uM after 48 hrs by sulforhodamine B assay.
The test system of the next test is OVCAR-5. The test is described as follows: Cytotoxicity against human OVCAR5 cells assessed as cell growth at 10 uM after 48 hrs by sulforhodamine B assay.
For the next test, the system named is OVCAR-8. In words: Cytotoxicity against human OVCAR8 cells assessed as cell growth at 10 uM after 48 hrs by sulforhodamine B assay.
The next test has as its system SK-OV-3. In words: Cytotoxicity against human SKOV3 cells assessed as cell growth at 10 uM after 48 hrs by sulforhodamine B assay.
In a further test the test system is CCRF-CEM. In words: Cytotoxicity against human CCRF-CEM cells assessed as cell growth at 10 uM after 48 hrs by sulforhodamine B assay.
Another test concerns 786-0. The test is described as follows: Cytotoxicity against human 786-0 cells assessed as cell growth at 10 uM after 48 hrs by sulforhodamine B assay.
The subject of a further test is A498. In words: Cytotoxicity against human A498 cells assessed as cell growth at 10 uM after 48 hrs by sulforhodamine B assay.
In another test the test system is ACHN. The test is described as follows: Cytotoxicity against human ACHN cells assessed as cell growth at 10 uM after 48 hrs by sulforhodamine B assay.
A further test relates to SN12C. In words: Cytotoxicity against human SN12C cells assessed as cell growth at 10 uM after 48 hrs by sulforhodamine B assay.
For a further test, the system named is RXF 393. In words: Cytotoxicity against human RXF393 cells assessed as cell growth at 10 uM after 48 hrs by sulforhodamine B assay.
The test system of another test is TK-10. The test is described as follows: Cytotoxicity against human TK10 cells assessed as cell growth at 10 uM after 48 hrs by sulforhodamine B assay.
Another test relates to UO-31. In words: Cytotoxicity against human UO31 cells assessed as cell growth at 10 uM after 48 hrs by sulforhodamine B assay.
For the next test, the system named is LOX IMVI. In words: Cytotoxicity against human LOXIMVI cells assessed as cell growth at 10 uM after 48 hrs by sulforhodamine B assay.
The subject of the next test is M14. In words: Cytotoxicity against human M14 cells assessed as cell growth at 10 uM after 48 hrs by sulforhodamine B assay.
For another test, the system named is Malme-3M. In words: Cytotoxicity against human MALME-3M cells assessed as cell growth at 10 uM after 48 hrs by sulforhodamine B assay.
The subject of another test is MDA-MB-435. The test is described as follows: Cytotoxicity against human MDA-MB-435 cells assessed as cell growth at 10 uM after 48 hrs by sulforhodamine B assay.
The next test concerns SK-MEL-28. The test is described as follows: Cytotoxicity against human SK-MEL-28 cells assessed as cell growth at 10 uM after 48 hrs by sulforhodamine B assay.
In a further test the test system is SK-MEL-5. The test is described as follows: Cytotoxicity against human SK-MEL-5 cells assessed as cell growth at 10 uM after 48 hrs by sulforhodamine B assay.
A further test concerns UACC-257. In words: Cytotoxicity against human UACC257 cells assessed as cell growth at 10 uM after 48 hrs by sulforhodamine B assay.
For a further test, the system named is DU-145. In words: Cytotoxicity against human DU145 cells assessed as cell growth at 10 uM after 48 hrs by sulforhodamine B assay.
In a further test the test system is SF-268. In words: Cytotoxicity against human SF268 cells assessed as cell growth at 10 uM after 48 hrs by sulforhodamine B assay.
The test system of the next test is SF-539. The test is described as follows: Cytotoxicity against human SF539 cells assessed as cell growth at 10 uM after 48 hrs by sulforhodamine B assay.
In a further test the test system is SNB-19. In words: Cytotoxicity against human SNB19 cells assessed as cell growth at 10 uM after 48 hrs by sulforhodamine B assay.
Another test concerns SNB-75. In words: Cytotoxicity against human SNB75 cells assessed as cell growth at 10 uM after 48 hrs by sulforhodamine B assay.
Another test concerns U-251. In words: Cytotoxicity against human U251 cells assessed as cell growth at 10 uM after 48 hrs by sulforhodamine B assay.

The source made the active and inactive calls. The calls are words filed in the database; no cut-off is given here.

As for `Cc1c(OCc2nnc(S)o2)ccc2c(-c3ccccc3)cc(=O)oc12`, the result in the test with SF-295, in the test on RPMI-8226, with MOLT-4, in the test with K562, with NCI-H522 and in the test with HT-29 was inactive. Further, the outcome in the test on PC-3, with UACC-62, in the test on HL-60(TB), in the test on SR, in the test with EKVX and in the test with SK-MEL-2 was inactive. The outcome with OVCAR-4, with T47D, in the test with A549, with HOP-62, with HOP-92 and with NCI-H322M was inactive. Also, the result with NCI-H460, in the test on NCI-H226, in the test on NCI-H23, with COLO 205, in the test on HCC 2998 and in the test with HCT-116 was inactive. Further, the result in the test on HCT-15, in the test on KM12, in the test on SW-620, with MCF7, in the test with MDA-MB-468 and with MDA-MB-231 was inactive. In addition, the outcome in the test with Hs-578T, in the test with BT-549, in the test on IGROV-1, in the test with OVCAR-3, in the test on OVCAR-5 and in the test with OVCAR-8 was inactive. Besides, the result in the test on SK-OV-3, in the test with CCRF-CEM, in the test with 786-0, with A498, in the test with ACHN and with SN12C was inactive. Also, the result in the test with RXF 393, in the test with TK-10, in the test on UO-31, in the test with LOX IMVI, in the test on M14 and in the test with Malme-3M was inactive. The result in the test with MDA-MB-435, in the test with SK-MEL-28, in the test with SK-MEL-5, in the test with UACC-257, in the test with DU-145 and with SF-268 was inactive. For the same compound, the result in the test with SF-539, with SNB-19, in the test with SNB-75 and with U-251 was inactive.
As for `CCCc1cc(=O)oc2cc(OCc3nnc(S)n3Cc3ccccc3)ccc12`, the growth at 10 µM in the test on SF-295 is 53%; in the test with RPMI-8226, 37.3%; in the test on MOLT-4, 58.7%; with K562, 46.9%; with UACC-62, 59.7%; in the test on HL-60(TB) (HL-60, 48 h, read-out: Activity), 59.7%. In addition, the growth at 10 µM came out at 57.6% with SR (read-out: Activity); 57.7% with EKVX (read-out: Activity); 53.4% with SK-MEL-2 (SK-MEL-2, 48 h, read-out: Activity); 48.7% with OVCAR-4 (OVCAR-4, 48 h, read-out: Activity); 50.7% in the test with T47D (read-out: Activity).
`CCCc1cc(=O)oc2c(C)c(OCc3nnc(SC)o3)ccc12`: the growth at 10 µM with SF-295 is 21.9%.
As to `Cc1c(OCc2nnc(S)n2Cc2ccccc2)ccc2c(-c3ccccc3)cc(=O)oc12`, the growth at 10 µM in the test with SF-295 came out at 45.8%; in the test with RPMI-8226, 31.5%; with MOLT-4, 49%; in the test with K562, 53.6%; in the test with NCI-H522 (NCI-H522, 48 h, read-out: Activity), 56.6%; with HT-29 (HT-29, 48 h, read-out: Activity) it was 57.1%. Also, the growth at 10 µM in the test with PC-3 (PC-3, 48 h, read-out: Activity) stood at 56.6%; in the test on UACC-62, 59.9%.
Turning to `Cc1c(OCc2nnc(-c3ccccc3)o2)ccc2c(-c3ccccc3)cc(=O)oc12`, in the test on RPMI-8226, the growth at 10 µM came out at 47.5%.
